From patent US8158681B2, “Nutraceutical and pharmaceutical compositions and use thereof for the treatment, co-treatment or prevention of inflammatory disorders” (DSM IP Assets B.V., priority 2006, dated 2012)

Assays:
Format in all cases: cell-based, murine
[1] = system: PGE2 production, RAW264.7; assay: Inhibition of PGE2 production in LPS-stimulated RAW264.7 macrophages (EIA); details: single compounds, RAW264.7, 1 μg/ml LPS, 24 hours
Description: (§1) Pure compounds were assayed in vitro in cellular systems. The inhibition of the synthesis of pro-inflammatory prostaglandins (PG) and of nitric oxide by the extracts or compounds was measured. PGE2 plays a critical role in the inflammation process, while nitric oxide (NO) is a hallmark of inflammation in various chronic inflammatory diseases including various forms of arthritis, gastrointestinal diseases and metabolic syndrome X.
(§2) The effects of extracts or compounds on the inflammatory response were tested in cellular assays using a murine macrophage indicator cell line, RAW264.7. The cells were purchased from ATCC (Manassas, Va., USA) and cultured in DMEM containing streptomycin/penicillin, non-essential amino acids and 10% fetal calf serum (FCS). In order to test a large range of concentration of compounds, cells (˜50′000/well) were seeded into flat-bottomed microtiter plates and cultured for one day. Cells were then starved in complete medium containing 0.25% FCS (D-025). After overnight culture, medium was removed and replaced by 100 μL of D-025 containing the test compounds at twice the final concentration. Subsequently, 100 μL of D-025 containing 2 μg/ml LPS was added (i.e. final LPS concentration of 1 μg/ml) and the cells cultured for 24 hours.
(§3) Compounds were usually tested in a concentration range from 0.2 to 50 μM in two-fold dilution steps. Extracts were tested in a range from 0.2-50 mg/L. All treatments were done in duplicates and several experimental series were done for each treatment. Concentrations of nitrite, which was rapidly formed from nitric oxide released by cells, were determined by the Griess reaction using sodium nitrite as standard. Briefly, 50 μl of supernatant was mixed with Griess reagent 1 (25 μL) and Griess reagent 2 (25 μL), centrifuged and the optical density at 540 nm determined. PGE2 secreted into the cell culture medium was determined by EIA obtained from Cayman Chemicals (Ann Harbor, Wis., USA) and used according to the manufacturer's instructions. All determinations were done in duplicates and at various dilutions of the culture supernatant. IC50 values were calculated using a […] least-square fitting equation [y=A+((B−A)/(1+((C−x)^D))] for best-fit curves (Excel fit software program).

[2] = system: nitric oxide (NO) production, RAW264.7; assay: Inhibition of nitric oxide production in LPS-stimulated RAW264.7 macrophages (Griess reaction); details: single compounds, RAW264.7, 1 μg/ml LPS, 24 hours
Description: as §1, §2, §3

[3] = system: matrix metalloproteinase 9 (MMP-9) mRNA; assay: Expression of inflammatory genes in stimulated RAW 264.7 cells, quantitative RT-PCR: MMP-9; details: RAW 264.7, 4 hours
Description: (§4) The effect of the compounds has also been evaluated on the level of the expression of genes that are involved in the inflammatory response. These comprise genes of the prostaglandin synthesis pathway, cytokines and chemokines or inducible nitric oxide synthase (iNOS). RAW 264.7 cells were stimulated in the presence of different concentrations of substances. After 4 hours, RNA was extracted and the expression of genes determined by quantitative RT-PCR as described (Richard, N., Porath, D., Radspieler, A. and Schwager, J. Effects of resveratrol, piceatannol, tri-acetoxystilbene, and genistein on the inflammatory response of human peripheral blood leukocytes. Mol Nutr Food Res 2005. 49: 431-442). […] Collectively, the results reveal significant effects of the compounds on the expression of distinct genes involved in the inflammatory response.

[4] = system: IL-1 alpha mRNA; assay: Expression of inflammatory genes in stimulated RAW 264.7 cells, quantitative RT-PCR: IL-1 alpha; details: 25 μM/L Amorfrutin A; RAW 264.7, 4 hours
Description: as §4

[5] = system: interleukin-10 (IL-10) mRNA; assay: Expression of inflammatory genes in stimulated RAW 264.7 cells, quantitative RT-PCR: IL-10; details: RAW 264.7, 4 hours
Description: as §4

[6] = system: inducible nitric oxide synthase (iNOS) mRNA; assay: Expression of inflammatory genes in stimulated RAW 264.7 cells, quantitative RT-PCR: iNOS; details: RAW 264.7, 4 hours
Description: as §4

| Structure (SMILES) | IC50 ([1]; Mus musculus) | IC50 ([2]; Mus musculus) | IC50 [1] | IC50 [2] | other results |
| --- | --- | --- | --- | --- | --- |
| C=C(C)C(O)Cc1c(OC)cc(CCc2ccccc2)c(C(=O)O)c1O (stereo not shown) [2-hydroxy-4-methoxy-3-(2-hydroxy-3-methyl-3-butenyl)-6-(2-phenylethyl)-benzoic acid] | 40.7 ± 11.8 µM | 14.6 ± 0.3 µM |  |  |  |
| C=C(C)C(O)Cc1c(OC)cc(CCCCC)c(C(=O)O)c1O (stereo not shown) [2-hydroxy-4-methoxy-3-(2-hydroxy-3-methyl-3-butenyl)-6-pentyl-benzoic acid] | 18.9 ± 1.6 µM | 22.1 ± 1.6 µM |  |  |  |
| CCCCCc1cc(OC)c(CC=C(C)C)c(O)c1C(=O)O [2-hydroxy-4-methoxy-3-(3-methyl-2-butenyl)-6-pentyl-benzoic acid] | > 50 µM | 10.9 ± 1.2 µM |  |  |  |
| COc1cc(CCc2ccccc2)c(C(=O)O)c(O)c1CC=C(C)C [Amorfrutin A (III), Amorfrutin A] |  |  | 74.1 ± 12.1 µM | 7.1 ± 0.1 µM | % expression of MMP-9 mRNA relative to cells stimulated with LPS only (=100%) ([3]; 25 μM/L Amorfrutin A): 69%; Effect on MMP-9 gene expression (in words) ([3]; RT-PCR): significantly reduced; % expression of IL-1 alpha mRNA relative to cells stimulated with LPS only (=100%) [4]: 94%; % expression of IL-10 mRNA relative to cells stimulated with LPS only (=100%) ([5]; 25 μM/L Amorfrutin A): 22%; Effect on IL-10 gene expression (in words) ([5]; RT-PCR): significantly reduced; % expression of iNOS mRNA relative to cells stimulated with LPS only (=100%) ([6]; 25 μM/L Amorfrutin A): 52%; Effect on iNOS gene expression (in words) ([6]; RT-PCR): significantly reduced |
| COc1cc(CCc2ccccc2)c(C(=O)O)c(O)c1C/C=C(\C)CCC=C(C)C [Amorfrutin B (II), Amorfrutin B] |  |  | > 100 µM | 22.8 ± 4.1 µM |  |
| CCCCCc1cc(OC)c(C/C=C(\C)CCC=C(C)C)c(O)c1C(=O)O [Cannabigerolic acid monomethyl ether] |  |  | 17.9 ± 11.6 µM | 31.3 ± 2.5 µM |  |
